Reference: US20210139966A1, “ENHANCEMENT OF NUCLEIC ACID POLYMERIZATION BY MINOR GROOVE BINDING MOIETIES” (priority 2018, published 2021)
Structures can show the parent of a compound that is named as a salt. Where two headings read alike, the source gives them in different places.

Columns and labels:
DNA polymerase [1] = test: Primer extension reaction with XNTPs as substrates (additive screen and MGB titration), gel electrophoresis of Xpandomer products; type: biochemical; settings: for enhancement of XNTP polymerization in titration: FIG. 5, MGB ranging from 75 to 600 μM, highest concentration most robust enhancement; for amount of MGB demonstrating reliable enhancement of XNTP polymerization: further titration experiments, FIG. 6
Description: However, initial transcription of the sequence of the natural DNA template onto the measurable Xpandomer relies on the ability of DNA polymerase to utilize XNTPs as substrates (the generalized structure of an XNTP is discussed herein with reference to FIG. 1A and FIG. 2). […] In an effort to improve the efficiency and accuracy of XNTP polymerization into Xpandomers, a wide variety of additives was screened for the ability to enhance DNA polymerase primer extension reactions using XNTPs as substrates.
A typical primer extension reaction includes the following reagents: 2 pmol primer, 2.2 pmol 45 mer oligonucleotide template, 50 pmol of each XNTP (XATP, XCTP, XGTP, and XTTP), 50 mM Tris HCl, pH 6.79, 200 mM NaCl, 20% PEG, 5% NMS, 0.5 nmol polyphosphate 60.19, 0.3 mM MnCl2, and 0.6 μg of purified recombinant DNA polymerase protein. Reactions are run for 1 hr at 23° C. Reaction products (i.e. constrained Xpandomers) are treated to cleave the phosphoramidate bonds, thereby generating linearized Xpandomers. Reaction products are analyzed using gel electrophoresis on 4-12% acrylamide gels to resolve and visualize Xpandomer products of different lengths. For the additive screen, reaction additives were typically tested in the micro to millimolar range.
Using the primer extension reaction described in Example 1, titration experiments were performed to determine the optimal amount of MGB for enhancement of XNTP polymerization.

DNA polymerase [2] = test: Sequencing by Expansion (SBX) of primer extension products, nanopore reads aligned to a 45 mer template; type: biochemical; settings: FIG. 7B, no additive control not accurate past base 20
Procedure: To investigate the accuracy of enhancement of XNTP polymerization, primer extension products were sequenced using the SBX protocol. Briefly, the constrained Xpandomer products of XNTP polymerization are cleaved to generate linearized Xpandomers. This is accomplished by first quenching the extension reaction with a solution containing 100 mM EDTA, 2 mM THPTA, and 2% Tween-20. Then the sample is subjected to amine modification with a solution of 1 M NaHCO3 and 1 M succinic anhydride in DMF. Cleavage of the phosphoramidate bonds is carried out with 37% HCl and linearized Xpandomers are purified with QIAquick columns (QIAGEN, Inc.).
For sequencing, protein nanopores are prepared by inserting α-hemolysin into a DPhPE/hexadecane bilayer member in buffer B1, containing 2 M NH4Cl and 100 mM HEPES, pH 7.4. The cis well is perfused with buffer B2, containing 0.4 M NH4Cl, 0.6 M GuCl, and 100 mM HEPES, pH 7.4. The Xpandomer sample is heated to 70° C. for 2 minutes, cooled completely, then a 2 μL sample is added to the cis well. A voltage pulse of 90 mV/390 mV/10 μs is then applied and data is acquired via Labview acquisition software.
Sequence data was analyzed by histogram display of the population of sequence reads from a single SBX reaction. […]

[3] = additive screen, primer extension with XNTPs, 1 hr at 23° C., additives typically tested in the micro to millimolar range

Compound	Extension Effect (DNA polymerase [1]; [3])	other results
OCC(O)CO [Glycerol]	No effect	
CCCCCCCc1ccc(C(O)CC[N+](C)(C)CCCS(=O)(=O)[O-])cc1 (stereo not drawn) [C7BzO]	No effect	
CN1CCN(c2ccc3[nH]c(-c4ccc5[nH]c(-c6ccc(O)cc6)nc5c4)nc3c2)CC1 [Hoescht Stain solution 33258, reference compound]	Beneficial	enhancement of XNTP polymerization in titration (DNA polymerase [1]): dose-dependent enhancement; effect on primer extension with XNTPs (summary of additive screen) (DNA polymerase [1]; additive screen): significantly and reproducibly enhanced; amount of MGB demonstrating reliable enhancement of XNTP polymerization (DNA polymerase [1]): 0.6 mM; accuracy of sequence reads of SBX sequencing (DNA polymerase [2]): increased the accuracy of the sequence reads completely to the end of the 45 mer template
NCc1ccccc1 [Benzylamine]	No effect	
CN1CCN(c2ccc3nc(-c4ccc5nc(-c6ccc(N(C)C)cc6)[nH]c5c4)[nH]c3c2)CC1 [Hoescht Stain solution 34580, reference compound]	Beneficial	effect on primer extension with XNTPs (summary of additive screen) (DNA polymerase [1]; additive screen): significantly and reproducibly enhanced
O=S(=O)([O-])[O-].[Ni+2] [NiSO4]	Inhibitory	
Triton	No effect	
C[N+](=O)[O-] [Nitromethane]	Inhibitory	
CC(=O)O.CCN(CC)CC [Triethylamine acetate]	Inhibitory	
CCCCCC(=O)[O-].[Na+] [Sodium Hexanoate]	No effect	
CCCCCCCCCCCC[N+](C)(C)C.[Cl-] [Dodecyltrimethylammonium chloride]	Inhibitory	
O=C(/C=C/C=C/c1ccc2c(c1)OCO2)N1CCCCC1 [Piperdine]	Inhibitory	
NC(N)=O [Urea]	Beneficial	
Cn1cc(NC(=O)c2cc(NC(=O)CN=C(N)N)cn2C)cc1C(=O)NCCC(=N)N [Netropsin dihydrochloride, reference compound]	Beneficial	enhancement of XNTP polymerization in titration (DNA polymerase [1]): dose-dependent enhancement; effect on primer extension with XNTPs (summary of additive screen) (DNA polymerase [1]; additive screen): significantly and reproducibly enhanced
Nc1cc(C(=O)O)cc(C(=O)O)c1 [5-Aminoisophthalic acid]	Inhibitory	
CC(C)=O [Acetone]	Beneficial	
N=C(N)NCCC[C@H](N)C(=O)O [Arginine]	Inhibitory	
O=S(=O)([O-])CCC[n+]1ccccc1 [3-(1-pyridinio)-1-propanesulfonate]	No effect	
N[C@@H](Cc1ccc(OP(=O)(O)O)cc1)C(=O)O [O-Phospho-L-tyrosine]	Inhibitory	
C[S+](C)[O-] [DMSO]	Length increases	
C[N+](C)(C)C.[Cl-] [TMACl]	No effect	
C1CCOC1 [Tetrahydrofuran]	No effect	
CC1COC(=O)O1 (stereo not drawn) [Propylene carbonate]	Inhibitory	

Compound	Extension Effect (DNA polymerase [1]; [3])	other results
CC#N [Acetonitrile]	No effect	
C[N+](C)(C)[O-] [TMAO]	Variable effects	
CCOc1ccc(-c2nc3ccc(-c4nc5ccc(N6CCN(C)CC6)cc5[nH]4)cc3[nH]2)cc1 [Hoescht Stain solution 33342, reference compound]	Beneficial	enhancement of XNTP polymerization in titration (DNA polymerase [1]): dose-dependent enhancement; effect on primer extension with XNTPs (summary of additive screen) (DNA polymerase [1]; additive screen): significantly and reproducibly enhanced; amount of MGB demonstrating reliable enhancement of XNTP polymerization (DNA polymerase [1]): 0.8 mM
CCCCCCCCCCCCC/C=C/[C@@H](O)[C@@H](N)CO [Sphingosine]	No effect	
CN(C)C=O [Dimethylformamide]	No effect	
Nc1cc(C(=O)O)ccc1C(=O)O [2-Aminoterephthalic acid]		Extension Effect (DNA polymerase [1]): Inhibitory
N=C(N)c1ccc(-c2cc3ccc(C(=N)N)cc3[nH]2)cc1 [DAPI, reference compound]	No effect	effect on XNTP polymerization reaction, gel of FIG. 4 (extension product length vs no-additive lane 1, around 14 XNTPs) (DNA polymerase [1]; FIG. 4 representative gel): inhibitory effect
c1c[nH]cn1 [Imidazole]	No effect	
CCCCCCCCCCCCN(C)CC(=O)O [N-Lauryl Sarcosine]	Inhibitory	
C[N+](C)(C)CC(=O)O [Betaine]	Inhibitory	
[Mg+2] [Magnesium]	Inhibitory	
C[N+](C)(C)CC(=O)NN.[Cl-] [Girards Reagent T]	No effect	
[Cl-].[Na+] [NaCl]		Extension Effect (DNA polymerase [1]): Beneficial
NC(COP(=O)(O)O)C(=O)O (racemic) [O-phospho-DL-serine]	Inhibitory	
CCCCCCCCCCCCOS(=O)(=O)[O-].[Na+] [Sodium docecyl sulfate]	No effect	
[Cl-].[K+] [Potassium Chloride]	No effect	
CC(=O)NCC(=O)O.CC(=O)NCC(=O)O.N=C(N)c1ccc(N=NNc2ccc(C(=N)N)cc2)cc1 [Diminazine Aceturate, reference compound]	No effect	
CDPI3 [reference compound]	Variable effects	
N=C(N)c1ccc(OCCCCCOc2ccc(C(=N)N)cc2)cc1 [Pentamidine isethionate salt, reference compound]	No effect	
Cl.Nc1ccc2cc3ccc(N)cc3nc2c1 [3,6-Diaminoacridine Hydrochloride, reference compound]	Beneficial	effect on primer extension with XNTPs (summary of additive screen) (DNA polymerase [1]; additive screen): significantly and reproducibly enhanced
CN1C(=O)CCC1=O [N-methyl succinimide]	Beneficial	
CCCCCCCCCCCCCC(=O)NCCC[N+](C)(C)CCCS(=O)(=O)[O-] [ASB-14 (amidosulfobetaine)]	No effect	
